Source: PubChem BioAssay AID504882 (Broad Institute, 2011)
Results filed as inconclusive are left out. The source made the active and inactive calls. How the calls were made is not given here.

System: EBV lymphoblastoid cells (LCL) viability, plate reader
Test: cytotoxicity in EBV lymphoblastoid cells, dose response, cytotoxicity control, cell-based, plate reader, cherry-picks, set 2 (AID 504882)

Compound | AC50
O=C(c1cccc(F)c1)N1CCN(c2cccc(Cl)c2)CC1 | 3.11 µM
Cc1cc(=O)[nH]c(NN=Cc2cc(Br)ccc2O)n1 | 3.92 µM
CC(=NNC(=S)Nc1cccc(Cl)c1)c1ccccn1 | 0.138 µM
CCOC(=O)c1c(CSc2nc(C)cc(C)c2C#N)n(C)c2cc(Br)c(OC(C)=O)cc12 | 14.6 µM
C#CCN(C[C@@H]1[C@@H](OC(=O)NCC2CCCCC2)[C@@H](OC(=O)NCC2CCCCC2)Cn2c(=O)ccc(=O)n21)S(=O)(=O)c1ccc(C)cc1 | 3.84 µM
O=C1C(=C(c2ccccc2)N2CCOCC2)Cc2ccccc21 | 5.38 µM
CC(=O)NC(c1cccs1)c1cc(F)c2cccnc2c1O (centres undefined) | 6.96 µM
Fc1ccc2[nH]c3c(N4CCSCC4)ncnc3c2c1 | 17.5 µM
COc1ccc(C(=O)NC2CCCc3c2cnn3-c2cccc(C)c2C)c(OC)n1 (centres undefined) | 1.22 µM
O=S(=O)(c1ccccc1)N1CCN(c2cc(-c3ccccc3)nc3ncnn23)CC1 | > 19.5 µM (inactive)
Cc1[nH]n(-c2ccccc2)c(=O)c1/C=N/Nc1nncc(-c2ccccc2)n1 | 0.83 µM
CC(=O)NC(c1ccc2ccccc2c1)c1ccc2cccnc2c1O (centres undefined) | 1.93 µM
CC1=C(C(=O)OCc2ccc3c(c2)OCO3)C(c2ccc(Cl)cc2)NC(=O)N1 (centres undefined) | 0.379 µM
CCCCC(=O)NC(c1ccc(OC)c(OC)c1)c1ccc2cccnc2c1O (centres undefined) | 5.63 µM
S=C1SCN(Cc2ccco2)CN1Cc1ccco1 | 15.8 µM
CCOc1ccc(C(=O)Nc2cc(C)ccn2)cc1 | 9.64 µM
CN1C(=O)N(C)c2ccc(C=O)c3cccc1c23 | 5.99 µM
COc1cccc(N=Nc2ccc(O)c3ncccc23)c1 | 2.18 µM
Cc1ccc(/C=N/NC(=O)c2cc(-c3ccccc3)nc3ccccc23)o1 | > 19.5 µM (inactive)
NC(=S)NN=Cc1nccc2c(C(F)(F)C(F)(F)C(F)(F)F)cccc12 | 0.452 µM
O=C(Nc1nc(-c2ccccn2)cs1)c1ccc(Cl)s1 | 1.34 µM
Cc1cc(S(=O)(=O)c2ccc(Cl)cc2)nc(S(=O)(=O)c2ccc(Cl)cc2)c1C#N | 0.855 µM
Cc1cc(Sc2nnc(N)s2)c2ccccc2n1 | 16.8 µM

Compound | AC50
CCC(=O)NC(c1cc(Cl)c2cccnc2c1O)C1CC1 (centres undefined) | 6.08 µM
O=C(Oc1c(Cl)cc(Cl)c2cccnc12)c1cccc([N+](=O)[O-])c1 | 18.8 µM
C/C(=N/NC(=O)c1ccc(C(C)(C)C)cc1)c1ccccn1 | 1.05 µM
S=C(NN=Cc1ccccn1)Nc1ccccn1 | 9.02 µM
CCCC(=O)NC(c1cccc([N+](=O)[O-])c1)c1ccc2cccnc2c1O (centres undefined) | 3.51 µM
CCOc1ccc(C(C)=O)cc1COc1cccnc1[N+](=O)[O-] | > 19.5 µM (inactive)
Cc1ccc2[nH]c(C(=O)N/N=C/c3ccccc3O)c(C)c2c1 | 3.05 µM
COc1ccc(C(=O)NC(=S)NNC(=O)c2ccc3ccccc3n2)cc1 | 3.69 µM
O=C(N/N=C/c1c(O)ccc2ccccc12)c1cccnc1 | 10.5 µM
O=[N+]([O-])c1c(Nc2cccc(O)c2)cc(Cl)c2nonc12 | 2.73 µM
O=C(/C=C/c1ccco1)Oc1cc(Br)cc(/C=N/NC(=O)c2ccccc2O)c1 | 6.29 µM
CC(=O)NC(c1ccc(Cl)cc1Cl)c1ccc2cccnc2c1O (centres undefined) | 1.56 µM
CCCCC(=O)NC(c1ccc(OC)cc1)c1ccc2cccnc2c1O (centres undefined) | 17.7 µM
CC1(C)N=C(N)N=C(N)N1c1ccc(CCCCc2ccccc2)cc1 | 0.991 µM
Clc1ccc(SCc2cc(N3CCOCC3)nc(-c3ccccn3)n2)cc1 | 4.05 µM
COc1ccc(CNC(=O)N2[C@H]3CC[C@@H]2C=C(c2ccc(F)cc2OCc2ccccc2)C3)cc1OC | 2.3 µM
S=C(NCCCN1CCOCC1)N1CCN(c2nc(-c3ccc(Cl)cc3)cs2)CC1 | 12.9 µM
CC(=NNC(=S)Nc1ccc(C)cc1)c1ccccn1 | 0.269 µM
O=[N+]([O-])c1ccc(O)c(/C=N/Nc2ncnc3c2cnn3-c2ccccc2)c1 | 4.55 µM
O=C(N/N=C/c1cc2c3c(c1O)CCCN3CCC2)c1ccccc1O | 3.05 µM
CCN(CC)S(=O)(=O)c1cc([N+](=O)[O-])ccc1NNC(=O)Nc1ccc(Cl)c(Cl)c1 | 20.2 µM
C=C1C(=O)C2=CC1CCC(=O)C1(C)CCC(OC(C)=O)C(C)(C)C1CC2O (centres undefined) | 5.14 µM
O=C(CF)N(O)c1ccc(C=Cc2ccccc2)cc1 | 4.21 µM

Compound | AC50
C#CCN(C[C@@H]1[C@@H](OC(=O)NCc2ccccc2F)[C@@H](OC(=O)NCc2ccccc2F)Cn2c(=O)ccc(=O)n21)S(=O)(=O)c1ccc(C)cc1 | 3.8 µM
COc1ccccc1N(C(C)=O)C1=C(Cl)C(=O)c2ccccc2C1=O | 2.59 µM
CC(=NNC(=S)N1CCCCC1)c1cccc(C)n1 | 2.37 µM
CC(=NNc1nc2ccccc2s1)c1ncccn1 | 10.2 µM
CC(=O)NC(c1ccc(Cl)cc1)c1ccc2cccnc2c1O (centres undefined) | 1.21 µM
COc1ccc(OCc2cccc(C(=O)NN)c2)cc1 | > 19.5 µM (inactive)
COc1cccc(/C=N/NC(=O)c2[nH]nc3c2CCc2ccccc2-3)c1O | 4.51 µM
CCOC(=O)CC(NC(=O)C(Cc1ccc(N(CCCl)CCCl)cc1)NC(C)=O)C(=O)OCC (centres undefined) | 5.68 µM
O=C(/C=C1\NC2(CCCC2)Cc2ccccc21)C(=O)N/N=C/c1ccccc1O | 18 µM
Oc1ccc(C=NNc2ccccn2)c(O)c1 | 16.2 µM
CCCCCCc1cc2cc(-c3nnc(-c4ccccc4)o3)c(=O)oc2cc1O | 9.34 µM
CCCCC(=O)NC(c1ccc(Cl)cc1Cl)c1ccc2cccnc2c1O (centres undefined) | 2.55 µM
Cc1ccc(C(=O)N/N=C/c2c(O)ccc3ccccc23)cn1 | 17 µM
O=c1c2c(nc3c(-c4ccc(Cl)cc4)c[nH]n13)CCCC2 | 2.44 µM
NC(=S)N/N=C/c1ncc(C(F)(F)F)cc1Cl | 10.6 µM
C=CCNC(=S)N/N=C(\C)c1ccccn1 | 0.13 µM
COc1ccc(C=C2CS(=O)(=O)CC(=Cc3ccc(OC)cc3)C2=O)cc1 | 0.675 µM
CC(=NNC(=S)N1CC2CCC(CC2)C1)c1nccs1 | 0.362 µM
CCCCC(=O)NC(c1ccc(Cl)cc1)c1ccc2cccnc2c1O (centres undefined) | 3.65 µM
CCNC(=S)NNC(=O)c1cc(-c2ccc(OCC)cc2)nc2ccccc12 | 7.85 µM
Oc1ccc(C=NNC(=S)Nc2ccccc2)nc1 | 13 µM
c1ccc(-c2nc(-c3ccccn3)no2)cc1 | 9.22 µM
C(=Cc1cnc2ccccc2n1)c1ccc2c(c1)OCO2 | 6.12 µM

Compound | AC50
CCc1ccc(Nc2n[n+](-c3ccccc3)c(-c3c(Cl)cccc3Cl)s2)cc1 | 15 µM
C(=N\Nc1nc2ccccc2[nH]1)/c1cccc2cccnc12 | 1.06 µM
CCOc1cccc(/C=N/Nc2ccc(S(=O)(=O)N(CC)CC)cn2)c1O | 1.79 µM
C[n+]1c2n(c3ccccc31)N=C(c1cc(C(C)(C)C)c(O)c(C(C)(C)C)c1)CS2 | 7.62 µM
CCN(CC)S(=O)(=O)c1cccc(NC(=O)Nc2cccc(C(F)(F)F)c2)c1 | 9.7 µM
CCN(CC)c1ccc(/C=N/NC(=O)c2c(Cl)cnn2C)c(O)c1 | 3.19 µM
CCN(CC)CCC(=O)N1C/C(=C/c2ccccc2)C(=O)/C(=C\c2ccccc2)C1 | 1.36 µM
N#Cc1ccc(-c2csc(NNC(=O)c3ccc(Br)cc3)n2)cc1 | 5.38 µM
CCOc1ccc(/C=C/[N+](=O)[O-])c2ccccc12 | 1.92 µM
CC(C)CC(=NNC(=O)c1ccncc1)c1cc(Cl)ccc1O | 3.19 µM
CCCc1c(C(=O)N/N=C(\C)c2ccccn2)nnn1-c1nonc1N | 1.57 µM
CCN(CC)C(=O)c1ccc(NC(=O)Nc2ccccc2F)cc1 | 2.63 µM
CCc1sc(C(=O)Nc2nc(-c3ccccn3)cs2)cc1C | 7.43 µM
COc1ccc(O)c(/C=N/Nc2nc(Nc3ccccc3)nc(-n3nc(C)cc3C)n2)c1 | 10.7 µM
O=C(NNC(=S)Nc1ccc(Cl)c(Cl)c1)c1ccccn1 | 1.5 µM
CCN(CC)c1ccc(/C=N/NC(=O)c2cnccn2)c(O)c1 | 3.23 µM
COc1ccc2[nH]c(C(=O)N/N=C/c3ccc(O)cc3O)cc2c1 | 16 µM
O=C(N/N=C/c1sc2ccccc2c1O)c1cccc2ccccc12 | 1.71 µM
CCn1c2ccccc2c2cc(/C=N/n3c(C)nnc3C)ccc21 | > 19.5 µM (inactive)
Clc1ccc(-n2nnnc2Sc2ncnc3sccc23)cc1 | 8.53 µM
CCn1c2ccccc2c2cc(/C=N/n3c(-c4cc(C)[nH]n4)n[nH]c3=S)ccc21 | 6.59 µM
CCN(CC)c1ccc(/C=N/Nc2nc3ccccc3[nH]2)c(O)c1 | 2.74 µM
Cc1ccc2[nH]c3c(N4CCN(Cc5ccccc5)CC4)ncnc3c2c1 | 10.6 µM

Compound | AC50
CS(=O)(=O)c1ncc(Cl)c(C(=O)Nc2ccc(OC(F)F)cc2)n1 | 4.53 µM
Cc1cc(=O)[nH]c(N=N/C(=N/Nc2ccccc2C)c2ccccc2)n1 | 8.28 µM
CCn1c2ccccc2c2cc(/C=N/NC(=O)c3ccncc3)ccc21 | 3.31 µM
CCN1CCN(Cc2ccc(NC(=O)c3ccc(C)c(NC(=O)c4c[nH]c5cc(C(F)(F)F)ccc5c4=O)c3)cc2C(F)(F)F)CC1 | 3.95 µM
CCOC(=O)c1c(C)[nH]c(C(=O)N/N=C\c2ccccc2O)c1C | 6.7 µM
COc1ccc(C(NC(C)=O)c2cc(Cl)c3cccnc3c2O)cc1 (centres undefined) | 6.92 µM
Cc1cc(N/N=C\c2ccc(Br)cc2)nc(-n2nc(C)cc2C)n1 | 4.81 µM
Oc1ccc2ccccc2c1N=Nc1ccccn1 | 4.54 µM
Cc1ccc2nc(-c3ccccn3)[nH]c2c1 | 19.5 µM
C=C(C(=O)c1ccccc1)C(CC(=O)c1ccccc1)c1ccccc1 (centres undefined) | 3.79 µM
O=C(N/N=C/c1ccc[nH]1)c1ccc(COc2cccc3cccnc23)cc1 | 4.93 µM
O=c1[nH]c(=O)n([C@H]2C[C@H](O)[C@@H](CO)O2)cc1C(F)(F)F | 1.51 µM
Cc1c(C(=O)Nc2nc(-c3ccccn3)cs2)oc2ccccc12 | 11 µM
C=CC(=O)OCCOCCOCCOCCOC(=O)C=C | 16.9 µM
c1ccc(-c2cccc(-c3ccccn3)n2)nc1 | 1.69 µM
CCOC(=O)c1cnc(-n2nc(C)cc2C)nc1NNc1cc(C)nc(-c2ccccc2)n1 | 3.73 µM
Nc1ccn([C@@H]2O[C@H](CO)[C@@H](O)[C@@H]2O)c(=O)n1 | 0.748 µM
Cc1nc2c(-c3ccc(Cl)cc3)c(C)[nH]n2c(=O)c1Cc1ccccc1 | 6.96 µM
Cc1cc(Sc2nnc(/N=C/N(C)C)s2)c2ccccc2n1 | 9.16 µM
CN=C1S/C(=C\c2ccc(O)c(Br)c2)C(=O)N1C | > 19.5 µM (inactive)
CCOC(=O)c1c2c(n(C)c1C)C(=O)C(=O)c1ccc(Br)cc1-2 | 1.95 µM
Cc1ccc(CSc2nc3ccncc3[nH]2)cc1 | 19.5 µM
